From patent publication US7772241B2, “Variolin derivatives and their use as antitumor agents” (Pharma Mar S.A., priority 2001, dated 2010)

Legend:
K-562 = experiment: Inhibition of cells growth by colorimetric (SRB) assay, K-562; settings: for GI50 / CC50: Homo sapiens, K562, 48 h; for GI50: read-out: GI50 K-562, SRB assay, 48 hours exposure; for CC50: read-out: LC50 K-562, SRB assay, 48 hours exposure; for TGI K-562: SRB assay, 48 hours exposure
Method in brief: (§1)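 Human tumour cells in RPMI 1640 with 10% FBS were seeded at 5×10^3 cells/well, allowed to attach for 18 h, then exposed to samples at 10 to 10^−8 μg/ml for 48 h. Growth was measured by SRB staining after TCA fixation, with absorbance read at 490 nm in triplicate wells.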

A-549 = experiment: Inhibition of cells growth by colorimetric (SRB) assay, A-549; settings: for GI50 / CC50: Homo sapiens, A549, 48 h; for GI50: read-out: GI50 A-549, SRB assay, 48 hours exposure; for CC50: read-out: LC50 A-549, SRB assay, 48 hours exposure; for TGI A-549: SRB assay, 48 hours exposure
Method in brief: as §1

SK-MEL-28 = experiment: Inhibition of cells growth by colorimetric (SRB) assay, SK-MEL-28; settings: for GI50 / CC50: Homo sapiens, SK-MEL-28, 48 h; for GI50: read-out: GI50 MEL-28, SRB assay, 48 hours exposure; for CC50: read-out: LC50 MEL-28, SRB assay, 48 hours exposure; for TGI MEL-28: SRB assay, 48 hours exposure
Method in brief: as §1

HT-29 = experiment: Inhibition of cells growth by colorimetric (SRB) assay, HT-29; settings: for GI50 / CC50: Homo sapiens, HT-29, 48 h; for GI50: read-out: GI50 HT-29, SRB assay, 48 hours exposure; for CC50: read-out: LC50 HT-29, SRB assay, 48 hours exposure; for TGI HT-29: SRB assay, 48 hours exposure
Method in brief: as §1

LoVo = experiment: Inhibition of cells growth by colorimetric (SRB) assay, LoVo; settings: for GI50 / CC50: Homo sapiens, LoVo, 48 h; for GI50: read-out: GI50 LOVO, SRB assay, 48 hours exposure; for CC50: read-out: LC50 LOVO, SRB assay, 48 hours exposure; for TGI LOVO: SRB assay, 48 hours exposure
Method in brief: as §1

LoVo-Dox = experiment: Inhibition of cells growth by colorimetric (SRB) assay, LoVo-Dox; settings: for GI50 / CC50: Homo sapiens, 48 h; for GI50: read-out: GI50 LOVO-DOX, SRB assay, 48 hours exposure; for CC50: read-out: LC50 LOVO-DOX, SRB assay, 48 hours exposure; for TGI LOVO-DOX: SRB assay, 48 hours exposure
Method in brief: as §1

DU-145 = experiment: Inhibition of cells growth by colorimetric (SRB) assay, DU-145; settings: for GI50 / CC50: Homo sapiens, DU-145, 48 h; for GI50: read-out: GI50 DU-145, SRB assay, 48 hours exposure; for CC50: read-out: LC50 DU-145, SRB assay, 48 hours exposure; for TGI DU-145: SRB assay, 48 hours exposure
Method in brief: as §1

LNCaP = experiment: Inhibition of cells growth by colorimetric (SRB) assay, LNCaP; settings: for GI50 / CC50: Homo sapiens, LNCaP, 48 h; for GI50: read-out: GI50 LN-caP, SRB assay, 48 hours exposure; for CC50: read-out: LC50 LN-caP, SRB assay, 48 hours exposure; for TGI LN-caP: SRB assay, 48 hours exposure
Method in brief: as §1

SK-BR-3 = experiment: Inhibition of cells growth by colorimetric (SRB) assay, SK-BR-3; settings: for GI50 / CC50: Homo sapiens, SK-BR-3, 48 h; for GI50: read-out: GI50 SK-BR-3, SRB assay, 48 hours exposure; for CC50: read-out: LC50 SK-BR-3, SRB assay, 48 hours exposure; for TGI SK-BR-3: SRB assay, 48 hours exposure
Method in brief: as §1

IGROV-1 = experiment: Inhibition of cells growth by colorimetric (SRB) assay, IGROV-1; settings: for GI50 / CC50: Homo sapiens, IGROV-1, 48 h; for GI50: read-out: GI50 IGROV, SRB assay, 48 hours exposure; for CC50: read-out: LC50 IGROV, SRB assay, 48 hours exposure; for TGI IGROV: SRB assay, 48 hours exposure
Method in brief: as §1

IGROV-ET = experiment: Inhibition of cells growth by colorimetric (SRB) assay, IGROV-ET; settings: for GI50 / CC50: Homo sapiens, 48 h; for GI50: read-out: GI50 IGROV-ET, SRB assay, 48 hours exposure; for CC50: read-out: LC50 IGROV-ET, SRB assay, 48 hours exposure; for TGI IGROV-ET: SRB assay, 48 hours exposure
Method in brief: as §1

SK-OV-3 = experiment: Inhibition of cells growth by colorimetric (SRB) assay, SK-OV-3; settings: for GI50 / CC50: Homo sapiens, SK-OV-3, 48 h; for GI50: read-out: GI50 SKOV-3, SRB assay, 48 hours exposure; for CC50: read-out: LC50 SKOV-3, SRB assay, 48 hours exposure; for TGI SKOV-3: SRB assay, 48 hours exposure
Method in brief: as §1

PANC-1 = experiment: Inhibition of cells growth by colorimetric (SRB) assay, PANC-1; settings: for GI50 / CC50: Homo sapiens, PANC-1, 48 h; for GI50: read-out: GI50 PANC-1, SRB assay, 48 hours exposure; for CC50: read-out: LC50 PANC-1, SRB assay, 48 hours exposure; for TGI PANC-1: SRB assay, 48 hours exposure
Method in brief: as §1

[1] = Inhibition of cells growth by colorimetric (SRB) assay, HMEC1; settings: human, HMEC1 cells, LC50 H-MEC-1, SRB assay, 48 hours exposure
HMEC1 = experiment: as above; settings: for GI50: Homo sapiens, HMEC-1, 48 h, read-out: GI50 H-MEC-1, SRB assay, 48 hours exposure; for TGI H-MEC-1: SRB assay, 48 hours exposure, in M (unit assumed)

For `Cl.Nc1nccc(-c2c3cccnc3n3c(N)nccc23)n1` [Compound 51], the GI50 (K-562) was 0.311 µM, the CC50 (K-562) was 5.17 µM and the “TGI K-562” value (K-562) was 4.03E−07. For the same compound, the GI50 (A-549) was 0.0999 µM, the CC50 (A-549) was 4.57 µM and the “TGI A-549” value (A-549) was 3.68E−07. The GI50 (SK-MEL-28) was 0.0925 µM, the CC50 (SK-MEL-28) was 1.37 µM and the “TGI MEL-28” value (SK-MEL-28) was 2.69E−07. The GI50 (HT-29) was 0.101 µM, the CC50 (HT-29) was 28.6 µM and the “TGI HT-29” value (HT-29) was 2.86E−07. The GI50 (LoVo) was 0.0774 µM, the CC50 (LoVo) was 16 µM and the “TGI LOVO” value (LoVo) was 1.84E−07. The GI50 (LoVo-Dox) was 0.078 µM, the CC50 (LoVo-Dox) was 17.9 µM and the “TGI LOVO-DOX” value (LoVo-Dox) was 2.86E−07. For the same compound, the GI50 (DU-145) was 0.0654 µM, the CC50 (DU-145) was 2.7 µM and the “TGI DU-145” value (DU-145) was 1.48E−07. For the same compound, the GI50 (LNCaP) was 0.0737 µM, the CC50 (LNCaP) was 0.286 µM and the “TGI LN-caP” value (LNCaP) was 1.27E−07. For the same compound, the GI50 (SK-BR-3) was 0.0591 µM, the CC50 (SK-BR-3) was 0.554 µM and the “TGI SK-BR-3” value (SK-BR-3) was 1.42E−07. The GI50 (IGROV-1) was 0.0851 µM, the CC50 (IGROV-1) was 2.12 µM and the “TGI IGROV” value (IGROV-1) was 3.28E−07. The GI50 (IGROV-ET) was 0.0748 µM, the CC50 (IGROV-ET) was 18.6 µM and the “TGI IGROV-ET” value (IGROV-ET) was 2.25E−07. The GI50 (SK-OV-3) was 0.146 µM, the CC50 (SK-OV-3) was 28.6 µM and the “TGI SKOV-3” value (SK-OV-3) was 2.15E−06. For the same compound, the GI50 (PANC-1) was 0.161 µM, the CC50 (PANC-1) was 28.6 µM and the “TGI PANC-1” value (PANC-1) was 2.73E−06. The CC50 at 48 h [1] was 0.143 µM, the GI50 (HMEC1) was 0.0164 µM and the “TGI H-MEC-1” value (HMEC1) was 1.54E−08.

With `Nc1nccc(-c2c3cccnc3n3ccccc23)n1` [Compound 56] the GI50 (K-562) was 8.23 µM, the CC50 (K-562) was 38.3 µM and the “TGI K-562” value (K-562) was 1.83E−05. For the same compound, the GI50 (A-549) was 6.28 µM, the CC50 (A-549) was 34.9 µM and the “TGI A-549” value (A-549) was 1.48E−05. For the same compound, the GI50 (SK-MEL-28) was 7.73 µM, the CC50 (SK-MEL-28) was 38.3 µM and the “TGI MEL-28” value (SK-MEL-28) was 1.73E−05. For the same compound, the GI50 (HT-29) was 12.5 µM, the CC50 (HT-29) was 38.3 µM and the “TGI HT-29” value (HT-29) was 3.46E−05. The GI50 (LoVo) was 6.74 µM, the CC50 (LoVo) was 38.3 µM and the “TGI LOVO” value (LoVo) was 1.63E−05. The GI50 (LoVo-Dox) was 5.93 µM, the CC50 (LoVo-Dox) was 38.3 µM and the “TGI LOVO-DOX” value (LoVo-Dox) was 1.66E−05. For the same compound, the GI50 (DU-145) was 2.12 µM, the CC50 (DU-145) was 25.6 µM and the “TGI DU-145” value (DU-145) was 8.88E−06. For the same compound, the GI50 (LNCaP) was 5.93 µM, the CC50 (LNCaP) was 20.6 µM and the “TGI LN-caP” value (LNCaP) was 1.11E−05. The GI50 (SK-BR-3) was 5.32 µM, the CC50 (SK-BR-3) was 38.3 µM and the “TGI SK-BR-3” value (SK-BR-3) was 1.88E−05. The GI50 (IGROV-1) was 8.69 µM, the CC50 (IGROV-1) was 38.3 µM and the “TGI IGROV” value (IGROV-1) was 1.91E−05. For the same compound, the GI50 (IGROV-ET) was 11.5 µM, the CC50 (IGROV-ET) was 38.3 µM and the “TGI IGROV-ET” value (IGROV-ET) was 2.35E−05. The GI50 (SK-OV-3) was 7.12 µM, the CC50 (SK-OV-3) was 35.5 µM and the “TGI SKOV-3” value (SK-OV-3) was 1.59E−05. The GI50 (PANC-1) was 8.96 µM, the CC50 (PANC-1) was 38.3 µM and the “TGI PANC-1” value (PANC-1) was 1.94E−05. For the same compound, the CC50 at 48 h [1] was 22.3 µM, the GI50 (HMEC1) was 3.9 µM and the “TGI H-MEC-1” value (HMEC1) was 9.34E−06.

For `CSc1nccc2c(-c3cccs3)c3cccnc3n12` [Compound 60], the GI50 (K-562) was ≥ 33.6 µM, the CC50 (K-562) was ≥ 33.6 µM and the “TGI K-562” value (K-562) was 3.36E−05. The GI50 (A-549) was 22.6 µM, the CC50 (A-549) was ≥ 33.6 µM and the “TGI A-549” value (A-549) was 3.36E−05. For the same compound, the GI50 (SK-MEL-28) was ≥ 33.6 µM, the CC50 (SK-MEL-28) was ≥ 33.6 µM and the “TGI MEL-28” value (SK-MEL-28) was 3.36E−05. The GI50 (HT-29) was ≥ 33.6 µM, the CC50 (HT-29) was ≥ 33.6 µM and the “TGI HT-29” value (HT-29) was 3.36E−05. For the same compound, the GI50 (LoVo) was ≥ 33.6 µM, the CC50 (LoVo) was ≥ 33.6 µM and the “TGI LOVO” value (LoVo) was 3.36E−05. For the same compound, the GI50 (LoVo-Dox) was ≥ 33.6 µM, the CC50 (LoVo-Dox) was ≥ 33.6 µM and the “TGI LOVO-DOX” value (LoVo-Dox) was 3.36E−05. The GI50 (DU-145) was ≥ 33.6 µM, the CC50 (DU-145) was ≥ 33.6 µM and the “TGI DU-145” value (DU-145) was 3.36E−05. The GI50 (LNCaP) was ≥ 33.6 µM, the CC50 (LNCaP) was ≥ 33.6 µM and the “TGI LN-caP” value (LNCaP) was 3.36E−05. For the same compound, the GI50 (SK-BR-3) was 0.24 µM, the CC50 (SK-BR-3) was 3.36 µM and the “TGI SK-BR-3” value (SK-BR-3) was 9.95E−07. The GI50 (IGROV-1) was 10.8 µM, the CC50 (IGROV-1) was ≥ 33.6 µM and the “TGI IGROV” value (IGROV-1) was 3.36E−05. For the same compound, the GI50 (IGROV-ET) was ≥ 33.6 µM, the CC50 (IGROV-ET) was ≥ 33.6 µM and the “TGI IGROV-ET” value (IGROV-ET) was 3.36E−05. For the same compound, the GI50 (SK-OV-3) was ≥ 33.6 µM, the CC50 (SK-OV-3) was ≥ 33.6 µM and the “TGI SKOV-3” value (SK-OV-3) was 3.36E−05. The GI50 (PANC-1) was ≥ 33.6 µM, the CC50 (PANC-1) was ≥ 33.6 µM and the “TGI PANC-1” value (PANC-1) was 3.36E−05. For the same compound, the CC50 at 48 h [1] was ≥ 33.6 µM, the GI50 (HMEC1) was 22.6 µM and the “TGI H-MEC-1” value (HMEC1) was 3.36E−05.
